Results reported in patent US9809861B2, “Method of evaluating inhibitory effect on damp-dry malodor” (Kao Corporation, priority 2012, dated 2017).

Experiments:
Moraxella sp. KMC4-1 [1] = assay: Sensory evaluation of inhibitory effect on damp-dry malodor on model examination cloth; type: cell-based; settings: summary of Table 14
Experimental: Subsequently, by using Moraxella sp. KMC4-1, which is one kind of the microorganisms which produce damp-dry malodor-causing substances, sensory evaluation of the inhibitory effect on damp-dry malodor by the test substance and measurement of production amount of 4M3H as one kind of the damp-dry malodor-causing substances were carried out.
Moraxella sp. KMC4-1 was inoculated as a test microbe onto SCD-LP agar medium (manufactured by Wako Pure Chemical Industries, Ltd.) and cultured for 1 to 2 weeks at room temperature to give a pre-culture plate. Colony surface was scraped off from the pre-culture plate, suspended in 5 mL of physiological saline, and OD600 was adjusted to 1.0 (about 10^8 CFU/mL).
A cotton jersey cloth obtained in a constant state after sterilization and drying at 25° C., 40% RH (cotton jersey manufactured by Shikisensha Colo., LTD., without silket finish) was cut to a square of 2 cm×2 cm. To the cloth, a solution prepared by dissolving 0.5 mg of 14-methylhexadecanoic acid, as a sebaceous dirt component, in 0.1 mL methanol, was applied. Then, methanol was dried to solid, to give a model examination cloth.
Methanol solution was prepared for each test substance and applied at 20° C. on the model examination cloth such that applied amount of each test substance was […] per gram of the model examination cloth. It was then dried for 2 hours at room temperature to dry methanol. Thereafter, 0.1 mL of the microbe suspension was coated onto the model examination cloth, and cultured for 24 hours in a petri dish using an incubator at 37° C. with relative humidity of 70%, to obtain a microbe-fixed cloth.
The sensory test of the model examination cloth was evaluated by a professional panel who can distinguish different subjects based on the damp-dry malodor. A sample, in which an inhibitory effect on damp-dry malodor was confirmed, was rated as “A”; a sample, in which it was difficult to determine the inhibitory effect on damp-dry malodor or a Weak inhibitory effect on damp-dry malodor was confirmed, was rated as “B; and a sample, in which no inhibitory effect on damp-dry malodor was confirmed, was rated as “C”.

fadB gene = assay: Change in expression amount of fadB gene in the presence of test substance (real time PCR); type: cell-based, Moraxella sp. KMC4-1; settings: for Change in the expression amount of fadB gene: Substance (1) 10 ppm, (2)(3)(5)(6) 100 ppm, (4) 500 ppm; for expression amount of the fadB gene by the microorganisms: summary of Table 12
Experimental: (§1) The substances (1) to (7) described below each were added to 4 mL SCD liquid medium (manufactured by NIHON PHARMACEUTICAL CO., LTD). As a control, a medium system not added with any test substance was also prepared. To these medium, one platinum loop of precultured Moraxella sp. KMC4-1 was inoculated and cultured for 24 hours at 35 C while shaking (160 rpm).
(§2) To the cell liquid cultured for 24 hours, 10 mg of 16-methyloctadecanoic acid was added as a sebaceous dirt component. After culturing again for 6 hours at 35° C., the cells were collected. As a control, a system not added with a sebaceous dirt component was also cultured and cells were collected therefrom.
(§3) An RNA sample was prepared from the collected cells in the same manner as in the test example 1.
(§4) Reaction solutions for real time PCR were prepared in the same manner as above, except that, instead of the primer set including the primer containing the oligonucleotide having the base sequence set forth in SEQ ID NO: 13 and the primer containing the oligonucleotide having the base sequence set forth in SEQ ID NO: 14, the primer set described in Tables 11 to 13 was used.
(§5) The reaction solutions for real time PCR each were subjected to a gene amplification by using an automatic gene amplification thermal cycler DICE Real time system II (manufactured by Takara Bio Inc.), and then the expression amount of each of the fatty acid desaturase gene (the Δ9desaturase gene) and the β oxidation-relating enzyme genes (the fadB gene and the fadD gene) was measured. PCR reaction conditions were 40 cycles of (i) a thermal denaturation reaction at 95° C. for 20 seconds, and (ii) an annealing reaction and an elongation reaction at 60° C. for 30 seconds.
(§6) By having the gene expression of 16S rRNA as an internal standard, and having the gene expression amount when adding no sebaceous dirt component and no test substance as a reference value, change in expression amount of each gene was calculated relative to the reference value. A sample, in which the expression amount of the gene was ½ times or less the reference value, was rated as “A”; a sample, in which the expression amount of the gene was more than ½ times and ⅔ times or less the reference value, was rated as “B”; and a sample, in which the expression amount of the gene was more than ⅔ times the reference value, was rated as “C”.

Moraxella sp. KMC4-1 [2] = assay: Growth-inhibitory test; type: cell-based; settings: SCD liquid medium, 24 hours, 35° C., (4) 500 ppm; for Growth-inhibitory effect: bacteria number decrease compared to the control: Substance (2) 100 ppm; for Growth-inhibitory effect: initial 10^4 CFU/mL, Substance (1) 10 ppm, (2)(3)(5)(6) 100 ppm
Experimental: To 4 mL of SCD liquid medium (manufactured by NIHON PHARMACEUTICAL CO., LTD), the substances (1) to (7) each were added so as to be the final concentration described in Table 15. As a control, a medium system not added with any test substance was also prepared. To the medium, the precultured Moraxella sp. KMC4-1 was inoculated so as to be the initial concentration of 10^4 CFU/mL and cultured for 24 hours at 35° C. while shaking (160 rpm). After that, it was subjected to serial dilution using LP dilution solution (NIHON PHARMACEUTICAL CO., LTD). Then, by using SCD-LP agar medium (NIHON PHARMACEUTICAL CO., LTD), the number of bacteria remained alive was determined.
As for the growth-inhibitory and the bactericidal effect, the evaluation was made as follows: compared to the control, when there was the bacteria number decrease of log 3 or more, it was rated as “A”; when there was the bacteria number decrease of log 1 or more but less than log 3, it was rated as “B”; and when there was the bacteria number decrease of less than log 1, it was rated as “C”.

fadD gene = assay: Change in expression amount of fadD gene in the presence of test substance (real time PCR); type: cell-based, Moraxella sp. KMC4-1; settings: for Change in the expression amount of fadD gene: Substance (1) 10 ppm, (2)(3)(5)(6) 100 ppm, (4) 500 ppm; for expression amount of the fadD gene by the microorganisms: summary of Table 13
Experimental: as §1, §2, §3, §4, §5, §6

| SMILES | inhibitory effect on damp-dry malodor (Moraxella sp. KMC4-1 [1]) | Change in the expression amount of fadB gene (fadB gene; primers SEQ ID NO: 25 / 26) | Change in the expression amount of fadB gene (fadB gene; primers SEQ ID NO: 27 / 28) | Change in the expression amount of fadB gene (fadB gene; primers SEQ ID NO: 29 / 30) | Change in the expression amount of fadB gene (fadB gene; primers SEQ ID NO: 31 / 32) | expression amount of the fadB gene by the microorganisms (fadB gene) | Growth-inhibitory effect: bacteria number decrease compared to the control (Moraxella sp. KMC4-1 [2]) | Growth-inhibitory effect (Moraxella sp. KMC4-1 [2]) | Change in the expression amount of fadD gene (fadD gene; primers SEQ ID NO: 35 / 36) | Change in the expression amount of fadD gene (fadD gene; primers SEQ ID NO: 41 / 42) | expression amount of the fadD gene by the microorganisms (fadD gene) |
| --- | --- | --- | --- | --- | --- | --- | --- | --- | --- | --- | --- |
| CC(=O)OC(C)(C)Cc1ccccc1 [Substance (2)] | an inhibitory effect on damp-dry malodor was observed | A (the expression amount of the gene was ½ times or less the reference value) | A (the expression amount of the gene was ½ times or less the reference value) | A (the expression amount of the gene was ½ times or less the reference value) | A (the expression amount of the gene was ½ times or less the reference value) | decreased | 2 log | B (the bacteria number decrease of log 1 or more but less than log 3) | A (the expression amount of the gene was ½ times or less the reference value) | A (the expression amount of the gene was ½ times or less the reference value) | decreased |
| CCCCCCCC/C=C\CCCCCCCC(=O)O [Substance (4)] | an inhibitory effect on damp-dry malodor was observed | A (the expression amount of the gene was ½ times or less the reference value) | A (the expression amount of the gene was ½ times or less the reference value) | A (the expression amount of the gene was ½ times or less the reference value) | A (the expression amount of the gene was ½ times or less the reference value) | decreased | 2 log | B (the bacteria number decrease of log 1 or more but less than log 3) | C (the expression amount of the gene was more than ⅔ times the reference value) | C (the expression amount of the gene was more than ⅔ times the reference value) | – |
| CNc1ccccc1C(=O)OC [Substance (3)] | an inhibitory effect on damp-dry malodor was observed | A (the expression amount of the gene was ½ times or less the reference value) | A (the expression amount of the gene was ½ times or less the reference value) | A (the expression amount of the gene was ½ times or less the reference value) | B (the expression amount of the gene was more than ½ times and ⅔ times or less the reference value) | decreased | – | C (the bacteria number decrease of less than log 1) | A (the expression amount of the gene was ½ times or less the reference value) | A (the expression amount of the gene was ½ times or less the reference value) | decreased |
| CCCCCCCCCC=O [Substance (1)] | an inhibitory effect on damp-dry malodor was observed | C (the expression amount of the gene was more than ⅔ times the reference value) | C (the expression amount of the gene was more than ⅔ times the reference value) | C (the expression amount of the gene was more than ⅔ times the reference value) | C (the expression amount of the gene was more than ⅔ times the reference value) | – | – | C (the bacteria number decrease of less than log 1) | A (the expression amount of the gene was ½ times or less the reference value) | A (the expression amount of the gene was ½ times or less the reference value) | decreased |
| O=C[C@H](O)[C@@H](O)[C@H](O)[C@H](O)CO [Substance (5)] | – | C (the expression amount of the gene was more than ⅔ times the reference value) | C (the expression amount of the gene was more than ⅔ times the reference value) | C (the expression amount of the gene was more than ⅔ times the reference value) | C (the expression amount of the gene was more than ⅔ times the reference value) | – | – | C (the bacteria number decrease of less than log 1) | C (the expression amount of the gene was more than ⅔ times the reference value) | C (the expression amount of the gene was more than ⅔ times the reference value) | – |
